Results on 10 molecules are retold here after US7687252B2, “Protein crystal of human cytochrome P450 aromatase and uses thereof” (Hauptman-Woodward Medcial Research Institute, Inc., priority 2007, dated 2010).

Entries after “also recorded” stand apart in the source; their conditions may differ. Where only a bound is given, the exact number is not on record here.

In series [1] the target is T1, P450arom (Homo sapiens, UniProt P11511).
T1 sequence (P11511 1-503): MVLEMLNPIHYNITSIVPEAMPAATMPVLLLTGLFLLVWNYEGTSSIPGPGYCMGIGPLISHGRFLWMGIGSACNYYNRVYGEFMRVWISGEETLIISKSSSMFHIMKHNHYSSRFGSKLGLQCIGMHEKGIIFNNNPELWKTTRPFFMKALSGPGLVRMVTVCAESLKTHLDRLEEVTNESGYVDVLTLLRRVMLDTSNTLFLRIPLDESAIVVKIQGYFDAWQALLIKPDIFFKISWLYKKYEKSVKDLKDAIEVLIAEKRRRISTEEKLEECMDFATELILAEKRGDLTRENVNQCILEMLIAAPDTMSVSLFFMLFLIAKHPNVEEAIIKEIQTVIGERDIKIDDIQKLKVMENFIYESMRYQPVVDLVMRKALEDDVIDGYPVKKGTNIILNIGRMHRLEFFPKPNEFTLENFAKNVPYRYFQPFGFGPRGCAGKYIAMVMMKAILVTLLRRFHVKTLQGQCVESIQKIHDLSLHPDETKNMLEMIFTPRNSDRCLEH
Put plainly: Detergent screen: P450arom enzyme activity and time stability. The class given is biochemical. Set-up: Crystallization and structural investigation of the full-length native P450arom; from tissue; host or cells: human term placenta (aromatase); liver (CPR, bovine or rat). To be noted: detergent 1-3 mM, exchanged for Em on HA column.

The target of series [2] is T1, P450arom. Set-up: Crystallization and structural investigation of the full-length native P450arom; from tissue; host or cells: human term placenta (aromatase); liver (CPR, bovine or rat). To be noted: previously determined [51]; cited from earlier work.
The test system of a further series is MCF-7 cells. The series can be described thus: Anti-proliferation assay in a MCF-7 cell line expressing P450arom (MTT). The class given is cell-based, human.
Series [3] concerns the target T1, P450arom. The series can be described thus: Absorption spectrum (Soret band) of P450arom-ligand complexes. Set-up: Crystallization and structural investigation of the full-length native P450arom; from tissue. To be noted: absorption spectrum of the P450arom complex.
The target in series [4] is T1, P450arom. Put plainly: Inhibition of P450arom enzyme activity (3H-water release from [1β-3H, 4-14C] androstenedione, enzyme reconstituted with CPR). Particulars: P450arom 20-30 mg/ml, final inhibitor 0.5-1.0 mM, crystallization protocol. Set-up: Crystallization and structural investigation of the full-length native P450arom; from tissue; host or cells: human term placenta (aromatase); liver (CPR, bovine or rat). The class given is biochemical.

The target in series [5] is T2, Aromatase (Homo sapiens, UniProt P11511).
T2 construct: Crystallization and structural investigation of the full-length native P450arom; from tissue; host or cells: human term placenta (aromatase); liver (CPR, bovine or rat)
T2 sequence (P11511 1-503): T1 sequence (P11511 1-503)
The series can be described thus: Assay of enzyme activity (specific activity) of purified aromatase. The class given is biochemical.

The subject of series [6] is Aromatase. Described as above. Particulars: in BNM after detergent exchange. The class given is biochemical, human.

For the molecule `CCCCCCCCO[C@@H]1O[C@H](CO)[C@@H](O[C@H]2O[C@H](CO)[C@@H](O)[C@H](O)[C@H]2O)[C@H](O)[C@H]1O` [BOM, n-octyl-β-D-maltopyranoside], the “effect of detergent on enzyme activity and time stability” value on P450arom [1] was “maintained enzyme activity and time stability at least as well as BDM”.

In the case of `CCCCCCCCO[C@@H]1O[C@H](CO)[C@@H](O)[C@H](O)[C@H]1O` [BOG, n-octyl-β-D-glucopyranoside], on P450arom [2], the “effect of detergent on P450arom activity” value is “destroy P450arom activity rapidly”.

For 4-hydroxytamoxifen, the “A-stimulated growth of the MCF-7 cells” value in the series on MCF-7 cells (androstenedione (A) stimulated) is recorded as “decreased”.

Regarding `N#Cc1ccc(C(c2ccc(C#N)cc2)n2cncn2)cc1` [letrozole], the DHEA-stimulated cell growth result with MCF-7 cells (DHEA stimulated MCF-7 cells) is reported as “inhibits the growth of DHEA-stimulated cell growth”. At P450arom [3], this molecule had a Soret band of 421 nm. Further, the “inhibition of P450arom” value on P450arom [4] was around 100%.

Molecule `CC(C)(C#N)c1cc(Cn2cncn2)cc(C(C)(C)C#N)c1` [anastrozole] returned a Soret band on P450arom [3] of 421 nm.

Take `CCCCCCCCCO[C@@H]1O[C@H](CO)[C@@H](O[C@H]2O[C@H](CO)[C@@H](O)[C@H](O)[C@H]2O)[C@H](O)[C@H]1O` [BNM, n-nonyl-β-D-maltopyranoside]: the “effect of detergent on enzyme activity and time stability” value on P450arom [1] was “maintained enzyme activity and time stability at least as well as BDM; also recorded: maintained the full P450arom activity”.

As for `C[C@]12CCC(=O)C=C1CC[C@@H]1[C@@H]2CC[C@]2(C)C(=O)CC[C@@H]12` [androstenedione], in the series with MCF-7 cells (substrate steroid alone), the “growth of the MCF-7 cells” value is listed as “stimulates the growth of the MCF-7 cells in a concentration-dependent manner”. For the same molecule, the Soret band at P450arom [3] amounted to 394 nm.

On to `CCCCCCCCCCCCO[C@@H]1O[C@H](CO)[C@@H](O[C@H]2O[C@H](CO)[C@@H](O)[C@H](O)[C@H]2O)[C@H](O)[C@H]1O` [BDM, n-dodecyl-β-D-maltopyranoside], for which the “effect of detergent on P450arom activity” value on P450arom [2] is “maintained P450arom activity for weeks at 4 °C”.

B1: Aromatase: human cytochrome P450 aromatase purified from term placenta, SEQ ID NO:1 (protein, listed as Homo sapiens)
chain: T1 sequence (P11511 1-503)
For B1, the turnover number in the series with Aromatase [5] (calculated) is around 6 min⁻¹. The specific activity retained with Aromatase [5] (in detergents BNM and BDM, 4° C. for weeks) was 80-90%. The “specific activity of the purified enzyme” value in the series with Aromatase [5] (typical / over a large number of purifications, androstenedione as substrate) was in the range of 20 to 100 nmol/min/mg. Besides, the specific activity in the series with Aromatase [5] (with Em as the detergent) is 50 to 100 nmol/min/mg; in the series with Aromatase [6], 10 to 50 nmol/min/mg.

B2: Del38arom: amino-terminal trans-membrane domain deleted P450arom, bacterial expression clone (protein, UniProt P11511 39-503, looked up, fragment)
chain: WNYEGTSSIPGPGYCMGIGPLISHGRFLWMGIGSACNYYNRVYGEFMRVWISGEETLIISKSSSMFHIMKHNHYSSRFGSKLGLQCIGMHEKGIIFNNNPELWKTTRPFFMKALSGPGLVRMVTVCAESLKTHLDRLEEVTNESGYVDVLTLLRRVMLDTSNTLFLRIPLDESAIVVKIQGYFDAWQALLIKPDIFFKISWLYKKYEKSVKDLKDAIEVLIAEKRRRISTEEKLEECMDFATELILAEKRGDLTRENVNQCILEMLIAAPDTMSVSLFFMLFLIAKHPNVEEAIIKEIQTVIGERDIKIDDIQKLKVMENFIYESMRYQPVVDLVMRKALEDDVIDGYPVKKGTNIILNIGRMHRLEFFPKPNEFTLENFAKNVPYRYFQPFGFGPRGCAGKYIAMVMMKAILVTLLRRFHVKTLQGQCVESIQKIHDLSLHPDETKNMLEMIFTPRNSDRCLEH
For B2, the specific activity with Aromatase [6] was below 1 nmol/min/mg.
